{"source": "patent US20220024921A1", "about": "“1,3,4-OXADIAZOLONE COMPOUND AND PHARMACEUTICAL” (NIPPON SHINYAKU CO., LTD., priority 2018, published 2022)", "key": {"[1]": {"target": "T1, PIM1 serine/threonine kinase (Homo sapiens, UniProt P11309)", "T1 construct": "purchased Carna Bioscience, Inc", "T1 sequence (P11309 whole entry)": "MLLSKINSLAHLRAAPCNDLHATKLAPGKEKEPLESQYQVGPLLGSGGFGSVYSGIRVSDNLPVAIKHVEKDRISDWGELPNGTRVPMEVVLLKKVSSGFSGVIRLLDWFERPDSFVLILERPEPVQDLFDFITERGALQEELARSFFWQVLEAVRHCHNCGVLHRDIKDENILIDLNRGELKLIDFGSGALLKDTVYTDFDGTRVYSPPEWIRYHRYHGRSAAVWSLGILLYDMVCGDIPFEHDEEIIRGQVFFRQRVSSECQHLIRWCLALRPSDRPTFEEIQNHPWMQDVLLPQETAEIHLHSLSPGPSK", "experiment": "PIM1 serine/threonine kinase inhibitory effect", "type": "biochemical", "details": "PIM1 serine/threonine kinase activity; ATP 40 μM; 30° C., 30 minutes", "in_short": "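Compounds were tested in duplicate from 0.01 to 10000 nM final against PIM1 kinase (0.15 μg/ml). The reaction ran for 30 minutes at 30° C with 40 μM ATP and 0.5 μM biotin-tagged substrate at pH 7.0. Phosphorylation was read by time-resolved FRET (OD665/OD620) after 1 h; IC50 by non-linear fit.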"}, "NZB/W F1 mice": {"test_system": "NZB/W F1 mice", "experiment": "Inhibitory effect on systemic lupus erythematosus and lupus nephritis model animals", "type": "in vivo", "details": "for survival rate / onset rate of proteinuria / anti-double-stranded DNA antibody titer: NZB/W F1 mice, 15, 30 mg per 1 kg twice a day for 15 weeks; for onset rate of proteinuria: UACR>20 = proteinuria-positive; for anti-double-stranded DNA antibody titer / Anti-double-stranded DNA antibody titer (U/mL): plasma, final day of administration; for Number of proteinuria-positive individuals: UACR>20 defined as positive; for Anti-double-stranded DNA antibody titer (U/mL): median of group; for Number of dead/euthanized individuals: until the final day of administration", "source_text": "For the evaluation of test substances, NZB/W F1 mice (29, 30-week-aged female), which are model mice with systemic lupus erythematosus and lupus nephritis, were used. These mice are a spontaneous animal model, and an increase in autoantibodies such as anti-double-stranded DNA antibody, which is considered to be a cause of systemic lupus erythematosus, and proteinuria, which is a characteristic of lupus nephritis, are observed for the mice, and the mice are known to die from nephritis.\nUrine was collected before the start of the test, and individuals with a urinary albumin concentration÷urinary creatinine concentration (UACR) value of 5 or more were excluded. Furthermore, the anti-double-stranded DNA antibody titer in blood and the body weight were measured before the start of the test, and 53 mice were grouped into 5 groups of 10 or 13 mice based on blood anti-double-stranded DNA antibody titer, age, and body weight. Since early death was expected for the vehicle-administered group, the test was conducted with 13 mice as this group.\nExample 75 and Example 202 were used as test substances, and a 0.5% methyl cellulose solution which is a vehicle was used as a control. Example 75 and Example 202 were prepared into solutions of 1.5 and 3.0 mg/mL by being dissolved in a 0.5% methyl cellulose solution.\nAfter grouping, the 0.5% methyl cellulose solution or the 1.5 or 3.0 mg/mL solution of Example 75 or Example 202 was administered to each of the mice of the 7 groups. The single dose was set to 10 mL per 1 kg of body weight, and the dose was administered twice a day. Under these conditions, the dose per time is 15, 30 mg per 1 kg of body weight. Administration was started on 29 or 30-week-aged mice, and was performed daily for 15 weeks until the age of 44 or 45 weeks.\nBlood was collected from the tail vein of each of all the surviving individuals on the final day of administration. Then, the blood was centrifuged and the plasma was separated and taken. The plasma was diluted 3000-fold, and the anti-double-stranded DNA antibody titer was measured by ELISA method (Levis anti-dsDNA-mouse ELISA Kit, FUJIFILM Wako Shibayagi Corporation). Measurement and analysis were performed according to the protocol of the Kit.\nAll the surviving individuals on the final day of administration were bred in a mouse metabolism cage (CLEA Japan, Inc.) for 16 hours, and urine was collected from each individual. The solids were removed by centrifuging the urine and collecting the supernatant. An automatic analyzer (JCA-BM6050 BioMajesty, JEOL Ltd.) was used to measure the albumin concentration and creatinine concentration in urine after centrifugation. A urinary albumin/creatinine ratio (UACR) was calculated by dividing the albumin concentration by the creatinine concentration, and individuals with UACR>20 were defined as proteinuria-positive individuals. In addition, for almost all the individuals that died before the final day of administration, UACR>20 was confirmed in urinalysis immediately before death, and thus these individuals were treated as proteinuria-positive individuals."}, "[2]": {"details": "single dose 15 mg/kg twice a day for 15 weeks"}, "[3]": {"details": "single dose 30 mg/kg twice a day for 15 weeks"}}, "data": [{"smiles": "C[C@H](Nc1cc(-c2n[nH]c(=O)o2)cc(F)c1C(F)(F)F)C1CCNCC1.Cl", "note": "[Example 75, 5-[3-fluoro-5-{[(1S)-1-(piperidin-4-yl)ethyl]amino}-4-(trifluoromethyl)phenyl]-1,3,4-oxadiazol-2(3H)-one hydrochloride]", "values": [{"measurement": "IC50", "setting": "[1]", "result": 1.4, "unit": "nM"}, {"measurement": "survival rate", "setting": "NZB/W F1 mice", "result": "improving the survival rate"}, {"measurement": "onset rate of proteinuria", "setting": "NZB/W F1 mice", "result": "decreasing the onset rate of proteinuria"}, {"measurement": "anti-double-stranded DNA antibody titer", "setting": "NZB/W F1 mice", "result": "suppressing an increase in anti-double-stranded DNA antibody titer"}, {"measurement": "Number of proteinuria-positive individuals", "setting": "NZB/W F1 mice; [2]", "result": "2/10"}, {"measurement": "Anti-double-stranded DNA antibody titer (U/mL)", "setting": "NZB/W F1 mice; [2]", "result": 423, "unit": "U/mL"}, {"measurement": "Number of dead/euthanized individuals", "setting": "NZB/W F1 mice; [2]", "result": "0/10"}, {"measurement": "Number of proteinuria-positive individuals", "setting": "NZB/W F1 mice; [3]", "result": "0/10"}, {"measurement": "Anti-double-stranded DNA antibody titer (U/mL)", "setting": "NZB/W F1 mice; [3]", "result": 306, "unit": "U/mL"}, {"measurement": "Number of dead/euthanized individuals", "setting": "NZB/W F1 mice; [3]", "result": "0/10"}]}, {"smiles": "C[C@H](Nc1cc(-c2n[nH]c(=O)o2)cc(F)c1OC(F)(F)F)C1CCNCC1.Cl", "note": "[Example 202, 5-[3-fluoro-5-{[(1S)-1-(piperidin-4-yl)ethyl]amino}-4-(trifluoromethoxy)phenyl]-1,3,4-oxadiazol-2(3H)-one hydrochloride]", "values": [{"measurement": "IC50", "setting": "[1]", "result": 1.5, "unit": "nM"}, {"measurement": "survival rate", "setting": "NZB/W F1 mice", "result": "improving the survival rate"}, {"measurement": "onset rate of proteinuria", "setting": "NZB/W F1 mice", "result": "decreasing the onset rate of proteinuria"}, {"measurement": "anti-double-stranded DNA antibody titer", "setting": "NZB/W F1 mice", "result": "suppressing an increase in anti-double-stranded DNA antibody titer"}, {"measurement": "Number of proteinuria-positive individuals", "setting": "NZB/W F1 mice; [2]", "result": "1/10"}, {"measurement": "Anti-double-stranded DNA antibody titer (U/mL)", "setting": "NZB/W F1 mice; [2]", "result": 568, "unit": "U/mL"}, {"measurement": "Number of dead/euthanized individuals", "setting": "NZB/W F1 mice; [2]", "result": "1/10"}, {"measurement": "Number of proteinuria-positive individuals", "setting": "NZB/W F1 mice; [3]", "result": "1/10"}, {"measurement": "Anti-double-stranded DNA antibody titer (U/mL)", "setting": "NZB/W F1 mice; [3]", "result": 112, "unit": "U/mL"}, {"measurement": "Number of dead/euthanized individuals", "setting": "NZB/W F1 mice; [3]", "result": "1/10"}]}]}
